PubChem BioAssay (NCI)
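Dose response: 5 concentrations. Exposure: 48 h. Format: 96-well plates. Endpoint: linear interpolation; highest concentration if not reached. Here, GI50 denotes the concentration required for 50% inhibition of growth. The concentration for full growth arrest is given as TGI.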

Key:
Assay in all cases: inhibition of tumour cell growth, NCI panel, 48 h
UACC-257 melanoma = test system: UACC-257 melanoma
RXF 393 renal = test system: RXF 393 renal
TK-10 renal = test system: TK-10 renal
786-0 renal = test system: 786-0 renal
ACHN renal = test system: ACHN renal
NCI-H460 lung = test system: NCI-H460 lung
SW-620 colon = test system: SW-620 colon
PC-3 prostate = test system: PC-3 prostate
NCI/ADR-RES ovarian = test system: NCI/ADR-RES ovarian
MDA-MB-231 breast = test system: MDA-MB-231 breast

Compound	TGI (UACC-257 melanoma)	TGI (RXF 393 renal)	TGI (TK-10 renal)	TGI (786-0 renal)	TGI (ACHN renal)	TGI (NCI-H460 lung)	TGI (SW-620 colon)	TGI (PC-3 prostate)	TGI (NCI/ADR-RES ovarian)	GI50 (UACC-257 melanoma)	GI50 (RXF 393 renal)	GI50 (TK-10 renal)	GI50 (786-0 renal)	GI50 (ACHN renal)	GI50 (NCI-H460 lung)	GI50 (SW-620 colon)	GI50 (MDA-MB-231 breast)	TGI (MDA-MB-231 breast)	GI50 (PC-3 prostate)	GI50 (NCI/ADR-RES ovarian)
CS(=O)(=O)CC(=O)c1ccccc1	> 100 µM	> 100 µM	> 100 µM	> 100 µM	> 100 µM	> 100 µM	> 100 µM	> 100 µM	> 100 µM	–	–	–	–	–	–	–	–	–	–	–
CC(=O)[CH-]C(=O)c1ccccc1.CC(=O)[CH-]C(=O)c1ccccc1.C[C@]12CCC(=O)C=C1CC[C@@H]1C2CC[C@@]2(C)C1CC[C@@H]2[O-].C[C@]12CCC(=O)C=C1CC[C@@H]1C2CC[C@@]2(C)C1CC[C@@H]2[O-].Cl.[Ti+4] (some centres not stated)	69.7 µM	31.9 µM	> 100 µM	26.3 µM	49.5 µM	30.9 µM	43.7 µM	–	–	19300 nM	16200 nM	29400 nM	13500 nM	17200 nM	14800 nM	17500 nM	–	–	–	–
Cc1ccccc1-n1c2nc(=O)n(C)c(=O)c-2nc2ccccc21	21.4 µM	39.2 µM	35.2 µM	58 µM	21 µM	27.3 µM	28.1 µM	–	–	–	–	–	–	–	–	–	–	–	–	–
Cc1ccc(NC(=O)/C(Cl)=C(/Cl)C(=O)O)cc1	44.2 µM	45.8 µM	33 µM	32.6 µM	30.1 µM	> 100 µM	29.9 µM	–	–	–	–	–	–	–	–	–	–	–	–	–
Cc1ccc(NC(=O)c2sc3nc4c(cc3c2N)C(=O)CCC4)cc1C	> 100 µM	–	> 100 µM	> 100 µM	> 100 µM	> 43.5 µM	> 100 µM	> 100 µM	> 100 µM	21600 nM	–	> 70000 nM	699 nM	1420 nM	399 nM	417 nM	1650 nM	> 100 µM	607 nM	784 nM
COc1cc(C(=O)N/N=C/c2ccc(N(C)C)cc2)cc(OC)c1OC	> 100 µM	–	–	> 100 µM	> 100 µM	31.7 µM	> 100 µM	> 100 µM	1.6 µM	–	234 nM	–	660 nM	1280 nM	376 nM	424 nM	1890 nM	> 87.9 µM	422 nM	337 nM
NCCNCc1c2ccccc2c(CNCCN)c2ccccc12	35.5 µM	38.6 µM	> 100 µM	53.4 µM	> 100 µM	27 µM	> 100 µM	–	–	–	–	–	–	–	–	–	–	–	–	–
O=C1CCSC2=C1SCc1sccc12	> 100 µM	> 100 µM	> 100 µM	> 100 µM	–	> 100 µM	> 100 µM	–	–	–	–	–	–	–	–	–	–	–	–	–
CN1CCN(C)C12C=CC=CC21CC1	> 100 µM	> 100 µM	> 100 µM	> 100 µM	> 100 µM	> 100 µM	> 100 µM	–	–	–	–	–	–	–	–	–	–	–	–	–
CCNC(=O)O/N=C1\CCC2[C@@H]3CC=C4C[C@@H](OC5CCCCO5)CC[C@]4(C)C3CC[C@]12C (some centres not stated)	4.41 µM	5.64 µM	3.81 µM	6.48 µM	2.81 µM	6.21 µM	6.04 µM	–	–	–	–	–	–	–	–	–	–	–	–	–
CC(C)(C)CC(N)=O	> 100 µM	–	> 100 µM	> 100 µM	> 100 µM	> 100 µM	> 100 µM	> 100 µM	> 100 µM	–	–	–	–	–	–	–	–	> 100 µM	–	–
CC1(c2ccccc2)CC(c2cccc([N+](=O)[O-])c2)=NO1 (configuration not stated)	> 100 µM	–	> 100 µM	> 100 µM	> 100 µM	> 100 µM	> 100 µM	–	–	–	–	–	–	–	–	–	–	–	–	–
Clc1ccc(-c2cc(-c3ccccc3)nc(NCCNc3ccnc4cc(Cl)ccc34)n2)cc1	4.09 µM	2.8 µM	3.42 µM	3.41 µM	3.24 µM	3.85 µM	3.48 µM	–	3.4 µM	2000 nM	1190 nM	1800 nM	1670 nM	1720 nM	1950 nM	1700 nM	1880 nM	3.57 µM	–	1660 nM
COc1cc(/C=C/C(=O)N2CCN(C(=O)c3cc(OC)c(OC)c(OC)c3)CC2)ccc1OCCCOc1cc2c(cc1OC)C(=O)N1CCC[C@H]1C=N2	2.04 µM	3.68 µM	4.37 µM	10.6 µM	> 35.3 µM	10.3 µM	0.446 µM	> 34.3 µM	> 95 µM	313 nM	334 nM	450 nM	491 nM	2640 nM	333 nM	198 nM	–	–	506 nM	11400 nM
CC#CC1C2CCCC1(CSc1ccccc1)NC(=O)O2 (configuration not stated)	> 100 µM	> 100 µM	> 100 µM	> 100 µM	> 100 µM	> 100 µM	> 100 µM	–	–	–	–	–	–	–	–	–	–	–	–	–
CC1=CC(N2C(=O)C(C)=CC2O)NC1=O (configuration not stated)	> 100 µM	> 100 µM	> 100 µM	> 100 µM	–	> 100 µM	> 100 µM	–	–	–	–	–	–	–	–	–	–	–	–	–
COC1=CC(c2ccc[nH]2)=N/C1=C\c1[nH]c(C)c(C(=O)CCCCC(=O)Oc2ccc3c(c2)CCC2C3CC[C@]3(C)[C@@H](O)CC[C@@H]23)c1C (some centres not stated)	> 100 µM	> 100 µM	> 100 µM	> 100 µM	> 100 µM	> 100 µM	> 100 µM	–	> 100 µM	> 100000 nM	25800 nM	33800 nM	5640 nM	5140 nM	5710 nM	4330 nM	2000 nM	8.04 µM	–	> 100000 nM
O=C1c2cccc(NCCN=Cc3ccccc3O)c2C(=O)c2c(NCCN=Cc3ccccc3O)cccc21	4.3 µM	–	5.52 µM	3.76 µM	8.82 µM	1.52 µM	1.38 µM	5.87 µM	97.1 µM	1440 nM	–	1710 nM	865 nM	1320 nM	399 nM	258 nM	489 nM	2.28 µM	1030 nM	11500 nM
c1ccc2c(c1)N=C(c1cccc3ccccc13)CC(c1ccc3c(c1)OCO3)S2 (configuration not stated)	> 100 µM	> 100 µM	> 100 µM	> 100 µM	> 100 µM	> 100 µM	> 100 µM	–	–	–	–	–	–	–	–	–	–	–	–	–
C=C(C(=C)P(=S)(c1ccccc1)c1ccccc1)P(=S)(c1ccccc1)c1ccccc1	> 100 µM	> 100 µM	> 100 µM	> 100 µM	> 100 µM	> 100 µM	> 100 µM	–	–	–	–	–	–	–	–	–	–	–	–	–
